How the values were obtained:
[1] = molecular target: anthrax toxin lethal factor (Bacillus anthracis, UniProt P15917); experiment: biochemical
LF = conditions: read-out: IC50 in a LF enzyme assay; cited from earlier work
macrophage = conditions: cited from earlier work

Sequence of anthrax toxin lethal factor (P15917 34-809 limits assumed): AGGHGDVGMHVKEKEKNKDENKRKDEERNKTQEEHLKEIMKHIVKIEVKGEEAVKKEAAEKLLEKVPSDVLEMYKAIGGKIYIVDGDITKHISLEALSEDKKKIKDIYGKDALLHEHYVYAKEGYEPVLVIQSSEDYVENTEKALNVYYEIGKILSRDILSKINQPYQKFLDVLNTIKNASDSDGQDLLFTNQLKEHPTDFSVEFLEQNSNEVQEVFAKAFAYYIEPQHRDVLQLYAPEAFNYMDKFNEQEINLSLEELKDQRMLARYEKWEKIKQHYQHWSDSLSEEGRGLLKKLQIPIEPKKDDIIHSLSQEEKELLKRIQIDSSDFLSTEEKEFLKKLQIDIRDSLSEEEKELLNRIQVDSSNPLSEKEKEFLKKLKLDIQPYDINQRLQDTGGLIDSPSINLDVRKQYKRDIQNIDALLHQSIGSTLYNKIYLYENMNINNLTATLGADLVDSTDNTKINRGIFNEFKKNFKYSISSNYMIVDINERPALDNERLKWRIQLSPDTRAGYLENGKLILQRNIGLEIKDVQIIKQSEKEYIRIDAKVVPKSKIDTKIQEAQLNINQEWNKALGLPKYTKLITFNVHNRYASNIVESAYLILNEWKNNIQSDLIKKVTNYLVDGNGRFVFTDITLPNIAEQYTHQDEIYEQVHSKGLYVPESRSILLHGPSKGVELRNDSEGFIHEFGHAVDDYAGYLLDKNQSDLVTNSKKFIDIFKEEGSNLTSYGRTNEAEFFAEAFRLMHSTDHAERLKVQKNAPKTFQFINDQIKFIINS

Which IC50 [1] does the source give for `CNC(=O)[C@H](Cc1c[nH]c2ccccc12)NC(=O)[C@@H](CC(=O)NO)CC(C)C` [GM6001/M364205, ilomastat] here?
Its IC50 is 10.2 ± 0.72 µM.

Which IC50 (LF) does the source give for `Cc1cc(S(=O)(=O)N[C@@H](C(=O)NO)C2CCOCC2)ccc1F` [compound 40, (2R)-2-[(4-fluoro-3-methylphenyl)sulfonylamino]-N-hydroxy-2-(tetrahydro-2H-pyran-4-yl)acetamide] here?
The IC50 was 0.054 µM.

What about the IC50 (macrophage) of the same compound?
The IC50 was 0.21 µM.

For `CCN(Cc1ccccc1)Cc1cc(Cl)ccc1O` [compound 5421384, 2-[(benzyl(ethyl)amino)methyl]-4-chlorophenol], which IC50 [1] is on record?
Its IC50 is 67.5 ± 2 µM.

With `CCN(Cc1ccccc1)Cc1cc(I)cc(I)c1O` [compound 5426202, 2-[(benzyl(ethyl)amino)methyl]-4,6-diiodophenol] as the compound, how does the IC50 [1] read?
Its IC50 is 49.5 ± 1.5 µM.

With `CCN(Cc1ccccc1)Cc1cc(Br)ccc1O` [compound 5428736, 2-[(benzyl(ethyl)amino)methyl]-4-bromophenol] as the compound, how does the IC50 [1] read?
Its IC50 is 73.9 ± 4.5 µM.

— publication PMC2805240 (Journal of chemical information and modeling, 2009)
